Assays:
Format in all cases: biochemical
inosine-guanosine kinase [1] = molecular target: T1, inosine-guanosine kinase (Escherichia coli, UniProt P0AEW6); experiment: Substrate specificity (phosphate-donor / phosphate-acceptor); details: for suitability as phosphate-donor (in words): 5 mM phosphate source instead of ATP, 300 mM KCl, 30° C., inosine as acceptor; for suitability as phosphate-acceptor (in words): ATP or dATP as phosphate-donor
T1 construct: made in house; host or cells: Escherichia coli
T1 sequence (P0AEW6 1-434): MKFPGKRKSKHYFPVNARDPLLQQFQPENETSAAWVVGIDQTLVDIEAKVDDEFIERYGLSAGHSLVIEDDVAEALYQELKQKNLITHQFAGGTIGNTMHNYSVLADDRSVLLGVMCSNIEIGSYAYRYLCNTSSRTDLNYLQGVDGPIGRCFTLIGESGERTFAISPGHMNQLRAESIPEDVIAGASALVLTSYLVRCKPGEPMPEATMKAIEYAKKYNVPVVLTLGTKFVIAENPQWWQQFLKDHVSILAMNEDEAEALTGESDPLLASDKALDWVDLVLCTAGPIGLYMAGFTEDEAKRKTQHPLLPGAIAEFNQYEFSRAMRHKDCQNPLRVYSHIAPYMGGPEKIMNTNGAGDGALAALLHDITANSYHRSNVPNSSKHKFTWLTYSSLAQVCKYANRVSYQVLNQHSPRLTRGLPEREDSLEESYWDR
Method: (§1) The activity of the inosine-guanosine kinase obtained is determined as follows. A reaction solution (hereafter referred to as reaction solution a) having a composition of 100 mM HEPES buffer (pH 7.2), 10 mM MgSO4, 50 mM KCl, 1 mM ATP and 1 mM inosine is brought into contact with the inosine-guanosine kinase in a concentration of about 10 μg protein/ml followed by reaction at 30° C. for about 30 minutes. During the course of reaction, a part of the reaction solution is subjected to sampling intermittently. After the reaction solution is diluted to 1/20 with 0.2M NaH2 PO4 (adjusted the pH to 2.6 with H3 PO4) to stop the reaction, an amount of 5'-IMP in the stopped reaction solution is quantitatively determined by HPLC. Analysis by HPLC is made by using 0.2M NaH2 PO4 (pH 2.6) at a flow rate of 1 ml/min. as an eluting solution and Asahipak GS-320H (manufactured by Asahi Chemical Co., Ltd.) as a column. Detection of components was made by the absorbance at UV absorbance at 254 nm as an index. Quantitative determination was made by comparing absorbancy with that of the standard.
In the method for determination of inosine-guanosine kinase activity described above, a reaction is carried out at 30° C. by changing the concentration of KCl to 300 mM in the composition of reaction solution a and adding various neutralized phosphate sources to the reaction solution instead of ATP in a final concentration of 5 mM. […] Where ATP or dATP is used as phosphate-donor, inosine and guanosine are preferred as phosphate-acceptor.
FIG. 1 relates to substrate specificity for inosine-guanosine kinase, wherein the ordinate represents an amount of 5'-IMP produced and the abscissa represents time.

inosine-guanosine kinase [2] = molecular target: T1, inosine-guanosine kinase; experiment: Activation of inosine-guanosine kinase by divalent or trivalent metal ion salts instead of MgSO4; details: for Produced IMP: 10 mM metal salt instead of MgSO4, 300 mM KCl; for activating action on the enzyme (in words): metal ion salt instead of MgSO4, 300 mM KCl
Method: as §1
In the method for determination of inosine-guanosine kinase activity described above, a reaction is carried out by changing the buffer to Tris-hydrochloride buffer (pH 8.0), and varying the concentration of KCl in the composition of reaction solution a. […] Next, activation is examined in the system where the concentration of KCl is changed to 300 mM in the composition of reaction solution a, by adding various divalent or trivalent metal ion salts instead of MgSO4.

inosine-guanosine kinase [3] = molecular target: T1, inosine-guanosine kinase; experiment: Effect of added metal salts on inosine-guanosine kinase activity (inhibitor test); details: 300 mM KCl; for Relative Activity (%): 1 mM metal salt added to reaction solution a, 30° C., 30 minutes, no metal salt = 100; for inhibition of the enzyme by metal ions (in words): 1 mM metal salt
Method: as §1
In the method for determination of inosine-guanosine kinase activity described above, the activity is determined by reacting at 30° C. for 30 minutes except that the concentration of KCl is changed to 300 mM and 1 mM metal salt is added to the composition of reaction solution a. The activity is determined as a standard when no metal salt is added. The enzyme is inhibited by metal ions such as CO^2+, Cu^2+, Zn^2+, etc.

inosine-guanosine kinase [4] = molecular target: T1, inosine-guanosine kinase; experiment: K+ (KCl) dependency of inosine-guanosine kinase; details: Tris-hydrochloride buffer (pH 8.0); KCl varied, or 100 mM NaCl instead of KCl
Method: as §1
In the method for determination of inosine-guanosine kinase activity described above, a reaction is carried out by changing the buffer to Tris-hydrochloride buffer (pH 8.0), and varying the concentration of KCl in the composition of reaction solution a. […]

SMILES | suitability as phosphate-donor (in words) (inosine-guanosine kinase [1]) | Produced IMP (inosine-guanosine kinase [2]) | Relative Activity (%) (inosine-guanosine kinase [3]) | also measured
Nc1ncnc2c1ncn2[C@@H]1O[C@H](COP(=O)(O)O)[C@@H](O)[C@H]1O [5'-AMP, adenosine monophosphate] | could not be phosphate-donors |  |  | 
Nc1ccn([C@@H]2O[C@H](COP(=O)(O)O)[C@@H](O)[C@H]2O)c(=O)n1 [5'-CMP, cytidine monophosphate] | could not be phosphate-donors |  |  | 
O=C(O)c1cc(=O)[nH]c(=O)n1[C@@H]1O[C@H](COP(=O)(O)O)[C@@H](O)[C@H]1O [5'-OMP, orotic acid monophosphate] | could not be phosphate-donors |  |  | 
Nc1ncnc2c1ncn2[C@@H]1O[C@H](COP(=O)(O)OP(=O)(O)O)[C@@H](O)[C@H]1O [ADP, adenosine diphosphate] | could not be phosphate-donors |  |  | 
Nc1ncnc2c1ncn2[C@@H]1O[C@H](COP(=O)(O)OP(=O)(O)OP(=O)(O)O)[C@@H](O)[C@H]1O [ATP, adenosine triphosphate] | good substrate |  |  | 
[Ba+2].[Cl-].[Cl-] [BaCl2] |  | 0 mM | 116% | 
[Co+2] [CO^2+] |  |  |  | inhibition of the enzyme by metal ions (in words) (inosine-guanosine kinase [3]): inhibited
[Ca+2].[Cl-].[Cl-] [CaCl2] |  | 0 mM | 107% | 
[Cl-].[Cl-].[Co+2] [CoCl2] |  | 0.01 mM | 32% | 
[Cl][Cu][Cl] [CuCl2] |  | 0 mM | 1% | 
[Cu+2] [Cu^2+] |  |  |  | inhibition of the enzyme by metal ions (in words) (inosine-guanosine kinase [3]): inhibited
[Cl][Fe][Cl] [FeCl2] |  | 0 mM | 112% | 
[Cl][Fe]([Cl])[Cl] [FeCl3] |  | 0 mM | 131% | 
Nc1nc2c(ncn2[C@@H]2O[C@H](COP(=O)(O)OP(=O)(O)OP(=O)(O)O)[C@@H](O)[C@H]2O)c(=O)[nH]1 [GTP, guanosine triphosphate] | could not be phosphate-donors |  |  | 
[K+] [K^+] |  |  |  | monovalent cation requirement for activation (in words) (inosine-guanosine kinase [4]): requires
[Cl-].[Cl-].[Mg+2] [MgCl2] |  | 0.60 mM |  | 
O=S(=O)([O-])[O-].[Mg+2] [MgSO4] |  | 0.68 mM |  | 
[Mg+2] [Mg^2+] |  |  |  | activating action on the enzyme (in words) (inosine-guanosine kinase [2]): exhibit an activating action

SMILES | suitability as phosphate-donor (in words) (inosine-guanosine kinase [1]) | Produced IMP (inosine-guanosine kinase [2]) | Relative Activity (%) (inosine-guanosine kinase [3]) | also measured
[Cl][Mn][Cl] [MnCl2] |  | 0.51 mM | 134% | 
O=S(=O)([O-])[O-].[Mn+2] [MnSO4] |  | 0.64 mM |  | 
[Mn+2] [Mn^2+] |  |  |  | activating action on the enzyme (in words) (inosine-guanosine kinase [2]): exhibit an activating action
[Cl-].[Na+] [NaCl] |  |  | 104% | monovalent cation requirement for activation (in words) (inosine-guanosine kinase [4]): no reaction proceeds
[F-].[Na+] [NaF] |  |  | 96% | 
O=c1ccn([C@@H]2O[C@H](COP(=O)(O)OP(=O)(O)OP(=O)(O)O)[C@@H](O)[C@H]2O)c(=O)[nH]1 [UTP, uridine triphosphate] | the reaction proceeds a little bit |  |  | 
CC(=O)[O-].CC(=O)[O-].[Zn+2] [Zn(CH3 COO)2] |  | 0 mM | 5% | 
O=S(=O)([O-])[O-].[Zn+2] [ZnSO4] |  | 0 mM | 5% | 
[Zn+2] [Zn^2+] |  |  |  | inhibition of the enzyme by metal ions (in words) (inosine-guanosine kinase [3]): inhibited
CC(=O)OP(=O)(O)O [acetylphosphoric acid] | could not be phosphate-donors |  |  | 
Nc1ncnc2c1ncn2[C@H]1C[C@H](O)[C@@H](COP(=O)(O)OP(=O)(O)OP(=O)(O)O)O1 [dATP, deoxyadenosine triphosphate] | good substrate |  |  | 
Nc1nc2c(ncn2[C@@H]2O[C@H](CO)[C@@H](O)[C@H]2O)c(=O)[nH]1 [guanosine] |  |  |  | suitability as phosphate-acceptor (in words) (inosine-guanosine kinase [1]): preferred
OC[C@H]1O[C@@H](n2cnc3c(O)ncnc32)[C@H](O)[C@@H]1O [inosine] |  |  |  | suitability as phosphate-acceptor (in words) (inosine-guanosine kinase [1]): preferred
O=P(O)(O)O [phosphoric acid] | could not be phosphate-donors |  |  | 
O=P(O)(O)OP(=O)(O)O [pyrophosphoric acid] | could not be phosphate-donors |  |  | 
O=P(O)(O)OP(=O)(O)OP(=O)(O)OP(=O)(O)O [tetrapolyphosphoric acid] | could not be phosphate-donors |  |  | 
O=P(O)(O)OP(=O)(O)OP(=O)(O)O [tripolyphosphoric acid] | could not be phosphate-donors |  |  | 
